Assay results from ChEMBL document CHEMBL1134145, “Carbohydrate recognition of gramicidin S analogues in aqueous medium” (Bioorg Med Chem Lett, 2001).

How the values were obtained:
[1] = Dissociation constant of compound with Lactulose was determined; type: physicochemical
[2] = Dissociation constant of compound with Fructose was determined; type: physicochemical

Kd [1] [µM]	Kd [2] [µM]	Compound
30	–	NCCC[C@@H]1NC(=O)[C@H](CCC(N)=O)NC(=O)[C@@H]2CCCN2C(=O)[C@@H](Cc2ccccc2)NC(=O)[C@H](Cc2c[nH]c3ccccc23)NC(=O)[C@H](CCCN)NC(=O)[C@H](CCC(N)=O)NC(=O)[C@@H]2CCCN2C(=O)[C@@H](Cc2ccccc2)NC(=O)[C@H](Cc2c[nH]c3ccccc23)NC1=O
–	1500	NCCC[C@@H]1NC(=O)[C@H](CC(=O)O)NC(=O)[C@@H]2CCCN2C(=O)[C@@H](Cc2ccccc2)NC(=O)[C@H](Cc2c[nH]c3ccccc23)NC(=O)[C@H](CCCN)NC(=O)[C@H](CC(=O)O)NC(=O)[C@@H]2CCCN2C(=O)[C@@H](Cc2ccccc2)NC(=O)[C@H](Cc2c[nH]c3ccccc23)NC1=O
200	1500	NCCC[C@@H]1NC(=O)[C@H](CC(N)=O)NC(=O)[C@@H]2CCCN2C(=O)[C@@H](Cc2ccccc2)NC(=O)[C@H](Cc2c[nH]c3ccccc23)NC(=O)[C@H](CCCN)NC(=O)[C@H](CC(N)=O)NC(=O)[C@@H]2CCCN2C(=O)[C@@H](Cc2ccccc2)NC(=O)[C@H](Cc2c[nH]c3ccccc23)NC1=O
180	4700	NCCC[C@@H]1NC(=O)[C@H](CC(=O)O)NC(=O)[C@@H]2CCCN2C(=O)[C@@H](Cc2ccccc2)NC(=O)[C@H](Cc2c[nH]c3ccccc23)NC(=O)[C@H](CCCN)NC(=O)[C@H](CC(N)=O)NC(=O)[C@@H]2CCCN2C(=O)[C@@H](Cc2ccccc2)NC(=O)[C@H](Cc2c[nH]c3ccccc23)NC1=O
